From publication PMC9776540, “Therapeutic Potential of a Water-Soluble Silver-Diclofenac Coordination Polymer on 3D Pancreatic Cancer Spheroids” (Journal of Medicinal Chemistry, 2022)
Structures can show the parent of a compound that is named as a salt.

Tests used:
A549 [1] = test: MTT cytotoxicity assay (IC50); format: cell-based, human; settings: Homo sapiens; A549, after 72 h incubation, MTT, vs untreated control cells; read-out: IC50
Method: (§1) MCF7 cell line (human breast adenocarcinoma, morphology: epithelial-like, ATCC: HTB-22), A549 cell […]
(§2) keratinocyte, morphology: epidermal, CSL Cell Lines Service GmbH); were cultured in Dulbecco’s Modified Eagle’s Medium (DMEM, Corning) with phenol red, supplemented with 10% fetal bovine serum (FBS) and with 1% streptomycin/penicillin. […]
(§3) from metastatic site: brain, ATCC: HTB-81) and MCR-5 cell line (primary line of human pulmonary […]
(§4) 10% fetal bovine serum (FBS). Cultures were incubated at 37 °C under a humidified atmosphere containing 5% CO2. Cells were transferred using a solution containing 0.05% trypsin and 0.5 mM EDTA.
(§5) All media and other ingredients were purchased from ALAB, Poland.
(§6) Cytotoxicity was assessed by MTT assay performed according the protocols described elsewhere.S1 In brief, 1×10^4 cells per well, seeded in 96-well flat bottom microtiter plate, were incubated with the tested compounds (in the appropriate media) at various range of concentrations for 24 h. After that time, solutions of compounds were washed out, cells were washed three times with PBS and fresh medium was applied. After next 72 h cell viability was determined using the Hill equation (Origin 9.0) with regard to the untreated cells (control), where y0 – untreated cell control (which was set to 100% viability), y100 – a lysis control (where the cells were treated with 0.5% triton X-100 was set to 0% […]
(§7) [c] at which the viability of the cells reaches 50%, H – the Hill coefficient (describing cooperativity):
(§8) Each compound concentration was tested in five replicates and repeated at least three times.
(§9) Determined values of IC50 are given as mean + S.D. (Standard Deviation).
(§10) Cisplatin was tested as a reference anticancer drug. […]

DU-145 [2] = test: MTT cytotoxicity assay (IC50); format: cell-based, human; settings: Homo sapiens; DU-145, after 72 h incubation, MTT, vs untreated control cells; read-out: IC50
Method: as §1, §2, §3, §4, §5, §6, §7, §8, §9, §10

HaCat [3] = test: MTT cytotoxicity assay (IC50); format: cell-based, human; settings: Homo sapiens; HaCat normal cells, after 72 h incubation, MTT, vs untreated control cells; read-out: IC50
Method: as §1, §2, §3, §4, §5, §6, §7, §8, §9, §10

MCF7 = test: MTT cytotoxicity assay (IC50); format: cell-based, human; settings: Homo sapiens; MCF7, after 72 h incubation, MTT, vs untreated control cells; read-out: IC50
Method: as §1, §2, §3, §4, §5, §6, §7, §8, §9, §10

MRC5 = test: MTT cytotoxicity assay (IC50); format: cell-based, human; settings: Homo sapiens; MRC5 normal cells, after 72 h incubation, MTT, vs untreated control cells; read-out: IC50
Method: as §1, §2, §3, §4, §5, §6, §7, §8, §9, §10

PANC-1 [4] = test: MTT cytotoxicity assay (IC50); format: cell-based, human; settings: Homo sapiens; PANC-1, after 72 h incubation, MTT, vs untreated control cells; read-out: IC50
Method: as §1, §2, §3, §4, §5, §6, §7, §8, §9, §10

A549 [5] = test: MTT survival test, surviving fraction (Table S3); format: cell-based, human
Method: (§11) 24, and 72 h. After each incubation time, the cells were washed with PBS. Then, fresh medium (supplemented with 10% FSB) was added, and the cells were incubated under standard conditions for another 24 h (6h + 24h, 24h + 24h, 72h + 24h). After this time, the MTT survival test was done. Surviving fraction given in % was estimated with relation to untreated cells. In the case of 6h + 24h and 24h + 24h approaches, the cells were seeded at 10 000 cells per well, while in the case of 72h + 24h at […]

DU-145 [6] = test: MTT survival test, surviving fraction (Table S3); format: cell-based, human
Method: as §11

HaCat [7] = test: MTT survival test, surviving fraction (Table S3); format: cell-based, human
Method: as §11

MCF-7 = test: MTT survival test, surviving fraction (Table S3); format: cell-based, human
Method: as §11

PANC-1 [8] = test: MTT survival test, surviving fraction (Table S3); format: cell-based, human
Method: as §11

PANC-1 cells = settings: PANC-1, 1 at IC50, others at molar ratio 1:1:1, 72 h after treatment
Method: as §1, §2, §3, §4
All media and other ingredients were purchased from ALAB, Poland. […]
Acridine Orange (OA) and Propidium Iodide PI Staining
AO is a nucleic acid-binding fluorophore that is cell membrane permeable and suitable for selective staining of nucleated living cells. PI is a nucleic acid-binding dye that is impermeable to live cells and suitable for staining dead or dying nucleated cells. All live, nucleated cells fluoresce green due to AO, and dead, nucleated cells are stained with both AO and PI and fluoresce red. For analysis of 1-induced

pBR322 plasmid = test: DNA strand break analysis, agarose gel electrophoresis; format: biochemical; settings: pBR322, 24 h, even at high concentration (500 μM)
Method: Then, the interaction between DNA and diclofenac, PTA, or 1 was evaluated by the gel electrophoresis of pBR322 plasmid to determine an ability to cause double- and/or single-strand DNA damages (Figure 6D). The double-strand damage may result in the appearance of different forms of DNA (linear form III and relaxed form II), which can be quantified by densitometry analysis (Figure 6E).
DNA Strand Break Analysis
The ability of 1, PTA and diclofenac to induce single- or double-strand breaks in plasmid DNA was tested
with the pBR322 plasmid (c = 0.5 mg/mL). All compounds were dissolved in water (c = 1 µM-500 µM).
After 1 h incubation at 37 °C, the reaction mixtures (20 μL) were mixed with 3 μL of loading buffer
(bromophenol blue in 30% glycerol) and loaded on 1% agarose gels, containing EB, in TBE buffer (90
mM Tris–borate, 20 mM EDTA, pH = 8.0). Gel electrophoresis was performed at a constant voltage of
100 V (4 V/cm) for 60 min. The gel was photographed and processed with a Digital Imaging System
(Syngen Biotech). For the densitometric analysis the UltraQuant 6.0 program was used.

[9] = comparison values, no method or reference printed at the place; cited from earlier work

Structure (SMILES): O=C(O)Cc1ccccc1Nc1c(Cl)cccc1Cl [NaDf, diclofenac sodium salt]
- IC50 (A549 [1]): 699 ± 7.1 µM
- IC50 (DU-145 [2]): 803 ± 14.7 µM
- IC50 (HaCat [3]): 1140 ± 18.3 µM
- IC50 (MCF7): 978 ± 10.4 µM
- IC50 (MRC5): 977.3 ± 5.9 µM
- IC50 (PANC-1 [4]): 801 ± 124 µM
- surviving fraction (A549 [5]; A549, 6h + 24h, dil. 10 000x (stocks: diclofenac 0.918, PTA 0.483, AgNO3 0.326 mg/mL)): 99.7 ± 4.3%
- surviving fraction (A549 [5]; A549, 6h + 24h, dil. 100x (stocks: diclofenac 0.918, PTA 0.483, AgNO3 0.326 mg/mL)): 72.5 ± 6.8%
- surviving fraction (A549 [5]; A549, 6h + 24h, dil. 1000x (stocks: diclofenac 0.918, PTA 0.483, AgNO3 0.326 mg/mL)): 88.7 ± 10.8%
- surviving fraction (A549 [5]; A549, 24h + 24h, dil. 10 000x (stocks: diclofenac 0.918, PTA 0.483, AgNO3 0.326 mg/mL)): 98.5 ± 10.9%
- surviving fraction (A549 [5]; A549, 24h + 24h, dil. 100x (stocks: diclofenac 0.918, PTA 0.483, AgNO3 0.326 mg/mL)): 70.9 ± 8.9%
- surviving fraction (A549 [5]; A549, 24h + 24h, dil. 1000x (stocks: diclofenac 0.918, PTA 0.483, AgNO3 0.326 mg/mL)): 81.8 ± 6.8%
- surviving fraction (A549 [5]; A549, 72h + 24h, dil. 10 000x (stocks: diclofenac 0.918, PTA 0.483, AgNO3 0.326 mg/mL)): 89.5 ± 8.2%
- surviving fraction (A549 [5]; A549, 72h + 24h, dil. 100x (stocks: diclofenac 0.918, PTA 0.483, AgNO3 0.326 mg/mL)): 67.7 ± 6.5%
- surviving fraction (A549 [5]; A549, 72h + 24h, dil. 1000x (stocks: diclofenac 0.918, PTA 0.483, AgNO3 0.326 mg/mL)): 78.5 ± 7.6%
- surviving fraction (DU-145 [6]; Du-145, 6h + 24h, dil. 10 000x (stocks: diclofenac 0.918, PTA 0.483, AgNO3 0.326 mg/mL)): 99.5 ± 8.2%
- surviving fraction (DU-145 [6]; Du-145, 6h + 24h, dil. 100x (stocks: diclofenac 0.918, PTA 0.483, AgNO3 0.326 mg/mL)): 78.2 ± 5.6%
- surviving fraction (DU-145 [6]; Du-145, 6h + 24h, dil. 1000x (stocks: diclofenac 0.918, PTA 0.483, AgNO3 0.326 mg/mL)): 87.7 ± 9.8%
- surviving fraction (DU-145 [6]; Du-145, 24h + 24h, dil. 10 000x (stocks: diclofenac 0.918, PTA 0.483, AgNO3 0.326 mg/mL)): 99.5 ± 10.7%
- surviving fraction (DU-145 [6]; Du-145, 24h + 24h, dil. 100x (stocks: diclofenac 0.918, PTA 0.483, AgNO3 0.326 mg/mL)): 78.7 ± 7.6%
- surviving fraction (DU-145 [6]; Du-145, 24h + 24h, dil. 1000x (stocks: diclofenac 0.918, PTA 0.483, AgNO3 0.326 mg/mL)): 88.4 ± 6.7%
- surviving fraction (DU-145 [6]; Du-145, 72h + 24h, dil. 10 000x (stocks: diclofenac 0.918, PTA 0.483, AgNO3 0.326 mg/mL)): 88.7 ± 6.1%
- surviving fraction (DU-145 [6]; Du-145, 72h + 24h, dil. 100x (stocks: diclofenac 0.918, PTA 0.483, AgNO3 0.326 mg/mL)): 70.8 ± 7.9%
- surviving fraction (DU-145 [6]; Du-145, 72h + 24h, dil. 1000x (stocks: diclofenac 0.918, PTA 0.483, AgNO3 0.326 mg/mL)): 71.4 ± 8.5%
- surviving fraction (HaCat [7]; 6h + 24h, dil. 10 000x (stocks: diclofenac 0.918, PTA 0.483, AgNO3 0.326 mg/mL)): 99.6 ± 10.8%
- surviving fraction (HaCat [7]; 6h + 24h, dil. 100x (stocks: diclofenac 0.918, PTA 0.483, AgNO3 0.326 mg/mL)): 86.5 ± 11.7%
- surviving fraction (HaCat [7]; 6h + 24h, dil. 1000x (stocks: diclofenac 0.918, PTA 0.483, AgNO3 0.326 mg/mL)): 92.5 ± 9.1%
- surviving fraction (HaCat [7]; 24h + 24h, dil. 10 000x (stocks: diclofenac 0.918, PTA 0.483, AgNO3 0.326 mg/mL)): 99.3 ± 12.8%
- surviving fraction (HaCat [7]; 24h + 24h, dil. 100x (stocks: diclofenac 0.918, PTA 0.483, AgNO3 0.326 mg/mL)): 88.8 ± 5.8%
- surviving fraction (HaCat [7]; 24h + 24h, dil. 1000x (stocks: diclofenac 0.918, PTA 0.483, AgNO3 0.326 mg/mL)): 99.2 ± 6.8%
- surviving fraction (HaCat [7]; 72h + 24h, dil. 10 000x (stocks: diclofenac 0.918, PTA 0.483, AgNO3 0.326 mg/mL)): 102.3 ± 11.2%
- surviving fraction (HaCat [7]; 72h + 24h, dil. 100x (stocks: diclofenac 0.918, PTA 0.483, AgNO3 0.326 mg/mL)): 88.4 ± 5.2%
- surviving fraction (HaCat [7]; 72h + 24h, dil. 1000x (stocks: diclofenac 0.918, PTA 0.483, AgNO3 0.326 mg/mL)): 99.2 ± 5.9%
- surviving fraction (MCF-7; MCF-7, 6h + 24h, dil. 10 000x (stocks: diclofenac 0.918, PTA 0.483, AgNO3 0.326 mg/mL)): 102.6 ± 13.4%
- surviving fraction (MCF-7; MCF-7, 6h + 24h, dil. 100x (stocks: diclofenac 0.918, PTA 0.483, AgNO3 0.326 mg/mL)): 78.6 ± 12.3%
- surviving fraction (MCF-7; MCF-7, 6h + 24h, dil. 1000x (stocks: diclofenac 0.918, PTA 0.483, AgNO3 0.326 mg/mL)): 89.5 ± 9.8%
- surviving fraction (MCF-7; MCF-7, 24h + 24h, dil. 10 000x (stocks: diclofenac 0.918, PTA 0.483, AgNO3 0.326 mg/mL)): 98.2 ± 9.8%
- surviving fraction (MCF-7; MCF-7, 24h + 24h, dil. 1000x (stocks: diclofenac 0.918, PTA 0.483, AgNO3 0.326 mg/mL)): 88.7 ± 10.6%
- surviving fraction (MCF-7; MCF-7, 72h + 24h, dil. 10 000x (stocks: diclofenac 0.918, PTA 0.483, AgNO3 0.326 mg/mL)): 97.8 ± 7.7%
- surviving fraction (MCF-7; MCF-7, 72h + 24h, dil. 1000x (stocks: diclofenac 0.918, PTA 0.483, AgNO3 0.326 mg/mL)): 85.4 ± 5.3%
- surviving fraction (PANC-1 [8]; PANC-1, 6h + 24h, dil. 10 000x (stocks: diclofenac 0.918, PTA 0.483, AgNO3 0.326 mg/mL)): 98.6 ± 7.8%
- surviving fraction (PANC-1 [8]; PANC-1, 6h + 24h, dil. 100x (stocks: diclofenac 0.918, PTA 0.483, AgNO3 0.326 mg/mL)): 75.3 ± 6.4%
- surviving fraction (PANC-1 [8]; PANC-1, 6h + 24h, dil. 1000x (stocks: diclofenac 0.918, PTA 0.483, AgNO3 0.326 mg/mL)): 84.5 ± 9.8%
- surviving fraction (PANC-1 [8]; PANC-1, 24h + 24h, dil. 10 000x (stocks: diclofenac 0.918, PTA 0.483, AgNO3 0.326 mg/mL)): 89.5 ± 9.9%
- surviving fraction (PANC-1 [8]; PANC-1, 24h + 24h, dil. 100x (stocks: diclofenac 0.918, PTA 0.483, AgNO3 0.326 mg/mL)): 71.2 ± 6.5%
- surviving fraction (PANC-1 [8]; PANC-1, 24h + 24h, dil. 1000x (stocks: diclofenac 0.918, PTA 0.483, AgNO3 0.326 mg/mL)): 82.4 ± 7.7%
- surviving fraction (PANC-1 [8]; PANC-1, 72h + 24h, dil. 10 000x (stocks: diclofenac 0.918, PTA 0.483, AgNO3 0.326 mg/mL)): 89.4 ± 6.3%
- surviving fraction (PANC-1 [8]; PANC-1, 72h + 24h, dil. 100x (stocks: diclofenac 0.918, PTA 0.483, AgNO3 0.326 mg/mL)): 68.5 ± 6.9%
- surviving fraction (PANC-1 [8]; PANC-1, 72h + 24h, dil. 1000x (stocks: diclofenac 0.918, PTA 0.483, AgNO3 0.326 mg/mL)): 80.3 ± 4.1%
- cytotoxicity seen by AO/PI staining (PANC-1 cells): did not induce visible cytotoxicity
- degradation of plasmid DNA (pBR322 plasmid): no degradation of DNA
- log P [9]: 1.4
